Experimental data as given in patent US10287295B2, “TGF-β inhibitors” (Rigel Pharmaceuticals, Inc., priority 2015, dated 2019).

Tests used:
[1] = tested on: GDF8 signaling (GDF pSMAD, MPC11); experiment: AlphaScreen SureFire SMAD3 (p-Ser423/425) assay, inhibition of GDF8 signaling; format: cell-based; conditions: Mus musculus, MPC-11, inhibition of GDF8 signaling, p-SMAD3 readout
[2] = tested on: TGF-β signaling (TGF-β pSMAD, MPC-11); experiment: AlphaScreen SureFire SMAD3 (p-Ser423/425) assay, inhibition of TGF-β signaling; format: cell-based; conditions: Mus musculus, MPC-11, inhibition of TGF-β signaling, p-SMAD3 readout

c1ccc(-c2nc[nH]c2-c2ccc3[nH]ncc3c2)cc1 [Compound 1, 5-(4-Phenyl-1H-imidazol-5-yl)-1H-indazole] was tested, and the IC50 [1] was 70 nM and the IC50 [2] was 230 nM.

For c1ccc(-c2nc[nH]c2-c2ccc3cn[nH]c3c2)cc1 [Compound 2, 6-(4-Phenyl-1H-imidazol-5-yl)-1H-indazole], the IC50 [1] was 60 nM and the IC50 [2] was 200 nM.

For Cc1cc(-c2nc[nH]c2-c2ccc3[nH]ncc3c2)ccc1F [Compound 3, 5-(4-(4-Fluoro-3-methylphenyl)-1H-imidazol-5-yl)-1H-indazole], the IC50 [1] was 10 nM and the IC50 [2] was 10 nM.

Compound Cc1cc(-c2nc[nH]c2-c2ccc3cn[nH]c3c2)ccc1F [Compound 4, 6-(4-(4-Fluoro-3-methylphenyl)-1H-imidazol-5-yl)-1H-indazole] has an IC50 [1] of 10 nM and an IC50 [2] of 20 nM.

Clc1ccc(-c2nc[nH]c2-c2ccc3[nH]ncc3c2)cc1 [Compound 6, 5-(4-(4-Chlorophenyl)-1H-imidazol-5-yl)-1H-indazole] was tested, and the IC50 [1] was 160 nM and the IC50 [2] was 620 nM.

In the case of Cc1cc(-c2ncn(C)c2-c2ccc3ncn(C)c3c2)ccc1F [Compound 8, 6-(4-(4-Fluoro-3-methylphenyl)-1-methyl-1H-imidazol-5-yl)-1-methyl-1H-benzo[d]imidazole], the IC50 [1] is reported as 90 nM and the IC50 [2] is reported as 210 nM.

Cc1cc(-c2ncn(C)c2-c2ccc3ncsc3c2)ccc1F [Compound 9, 6-(4-(4-Fluoro-3-methylphenyl)-1-methyl-1H-imidazol-5-yl)benzo[d]thiazole] showed an IC50 [1] of 60 nM and an IC50 [2] of 330 nM.

Fc1ccc(-c2nc[nH]c2-c2ccc3[nH]ncc3c2)cc1 [Compound 10, 5-(4-(4-Fluorophenyl)-1H-imidazol-5-yl)-1H-indazole] was tested, and the IC50 [1] was 10 nM and the IC50 [2] was 60 nM.

Fc1ccc(-c2nc[nH]c2-c2ccc3cn[nH]c3c2)cc1 [Compound 11, 6-(4-(4-Fluorophenyl)-1H-imidazol-5-yl)-1H-indazole] gave an IC50 [1] of 40 nM and an IC50 [2] of 130 nM.

Work on Cn1cnc2ccc(-c3[nH]cnc3-c3ccc(F)cc3)cc21 [Compound 12, 6-(4-(4-Fluorophenyl)-1H-imidazol-5-yl)-1-methyl-1H-benzo[d]imidazole] yielded an IC50 [1] of 130 nM and an IC50 [2] of 270 nM.

With Fc1ccc(-c2nc[nH]c2-c2ccc3ncsc3c2)cc1 [Compound 13, 6-(4-(4-Fluorophenyl)-1H-imidazol-5-yl)benzo[d]thiazole] the IC50 [1] was 120 nM and the IC50 [2] was 380 nM.

Compound Fc1ccc(-c2nc[nH]c2-c2ccc3nccn3c2)cc1 [Compound 14, 6-(4-(4-Fluorophenyl)-1H-imidazol-5-yl)imidazo[1,2-a]pyridine] has an IC50 [1] of 610 nM and an IC50 [2] of 1820 nM.

With Cc1cccc(-c2nc[nH]c2-c2ccc3[nH]ncc3c2)c1 [Compound 15, 5-(4-(m-Tolyl)-1H-imidazol-5-yl)-1H-indazole] the IC50 [1] was 10 nM and the IC50 [2] was 60 nM.

Cc1cccc(-c2nc[nH]c2-c2ccc3cn[nH]c3c2)c1 [Compound 16, 6-(4-(m-Tolyl)-1H-imidazol-5-yl)-1H-indazole] showed an IC50 [1] of 20 nM and an IC50 [2] of 100 nM.

For Cc1cccc(-c2nc[nH]c2-c2ccc3ncn(C)c3c2)c1 [Compound 17, 1-Methyl-6-(4-(m-tolyl)-1H-imidazol-5-yl)-1H-benzo[d]imidazole], the IC50 [1] was 50 nM and the IC50 [2] was 140 nM.

Cc1cccc(-c2nc[nH]c2-c2ccc3ncsc3c2)c1 [Compound 18, 6-(4-(m-Tolyl)-1H-imidazol-5-yl)benzo[d]thiazole] showed an IC50 [1] of 40 nM and an IC50 [2] of 150 nM.

With Cc1cccc(-c2nc[nH]c2-c2ccc3nccn3c2)c1 [Compound 19, 6-(4-(m-Tolyl)-1H-imidazol-5-yl)imidazo[1,2-a]pyridine] the IC50 [1] was 150 nM and the IC50 [2] was 730 nM.

Compound Cc1cccc(-c2nc[nH]c2-c2ccc3nccnc3c2)c1 [Compound 20, 6-(4-(m-Tolyl)-1H-imidazol-5-yl)quinoxaline] has an IC50 [1] of 180 nM and an IC50 [2] of 160 nM.

Compound Cc1cc(-c2ncn(C)c2-c2ccc3nccnc3c2)ccc1F [Compound 21, 6-(4-(4-Fluoro-3-methylphenyl)-1-methyl-1H-imidazol-5-yl)quinoxaline] has an IC50 [1] of 380 nM and an IC50 [2] of 740 nM.

Clc1cccc(-c2nc[nH]c2-c2ccc3[nH]ncc3c2)c1 [Compound 22, 5-(4-(3-Chlorophenyl)-1H-imidazol-5-yl)-1H-indazole] gave an IC50 [1] of 20 nM and an IC50 [2] of 30 nM.

Clc1cccc(-c2nc[nH]c2-c2ccc3cn[nH]c3c2)c1 [Compound 23, 6-(4-(3-Chlorophenyl)-1H-imidazol-5-yl)-1H-indazole] was tested, and the IC50 [1] was 10 nM and the IC50 [2] was 30 nM.

Cn1cnc2ccc(-c3[nH]cnc3-c3cccc(Cl)c3)cc21 [Compound 24, 6-(4-(3-Chlorophenyl)-1H-imidazol-5-yl)-1-methyl-1H-benzo[d]imidazole] showed an IC50 [1] of 10 nM and an IC50 [2] of 10 nM.

Compound Clc1cccc(-c2nc[nH]c2-c2ccc3ncsc3c2)c1 [Compound 25, 6-(4-(3-Chlorophenyl)-1H-imidazol-5-yl)benzo[d]thiazole] has an IC50 [1] of 40 nM and an IC50 [2] of 60 nM.

Work on Clc1cccc(-c2nc[nH]c2-c2ccc3nccn3c2)c1 [Compound 26, 6-(4-(3-Chlorophenyl)-1H-imidazol-5-yl)imidazo[1,2-a]pyridine] yielded an IC50 [1] of 220 nM and an IC50 [2] of 260 nM.

With Fc1cccc(-c2nc[nH]c2-c2ccc3[nH]ncc3c2)c1 [Compound 27, 5-(4-(3-Fluorophenyl)-1H-imidazol-5-yl)-1H-indazole] the IC50 [1] was 90 nM and the IC50 [2] was 120 nM.

Fc1cccc(-c2nc[nH]c2-c2ccc3cn[nH]c3c2)c1 [Compound 28, 6-(4-(3-Fluorophenyl)-1H-imidazol-5-yl)-1H-indazole] showed an IC50 [1] of 50 nM and an IC50 [2] of 60 nM.

With Cn1cnc2ccc(-c3[nH]cnc3-c3cccc(F)c3)cc21 [Compound 29, 6-(4-(3-Fluorophenyl)-1H-imidazol-5-yl)-1-methyl-1H-benzo[d]imidazole] the IC50 [1] was 290 nM.

With Fc1cccc(-c2nc[nH]c2-c2ccc3ncsc3c2)c1 [Compound 30, 6-(4-(3-Fluorophenyl)-1H-imidazol-5-yl)benzo[d]thiazole] the IC50 [1] was 270 nM and the IC50 [2] was 320 nM.

Work on Fc1ccc(-c2nc[nH]c2-c2ccc3[nH]ncc3c2)cc1F [Compound 31, 5-(4-(3,4-Difluorophenyl)-1H-imidazol-5-yl)-1H-indazole] yielded an IC50 [1] of 20 nM and an IC50 [2] of 90 nM.

Fc1ccc(-c2nc[nH]c2-c2ccc3cn[nH]c3c2)cc1F [Compound 32, 6-(4-(3,4-Difluorophenyl)-1H-imidazol-5-yl)-1H-indazole] gave an IC50 [1] of 50 nM and an IC50 [2] of 140 nM.

Cn1cnc2ccc(-c3[nH]cnc3-c3ccc(F)c(F)c3)cc21 [Compound 33, 6-(4-(3,4-Difluorophenyl)-1H-imidazol-5-yl)-1-methyl-1H-benzo[d]imidazole] showed an IC50 [1] of 60 nM and an IC50 [2] of 70 nM.

With Fc1ccc(-c2nc[nH]c2-c2ccc3ncsc3c2)cc1F [Compound 34, 6-(4-(3,4-Difluorophenyl)-1H-imidazol-5-yl)benzo[d]thiazole] the IC50 [1] was 70 nM and the IC50 [2] was 140 nM.

With Fc1ccc(-c2nc[nH]c2-c2ccc3nccn3c2)cc1F [Compound 35, 6-(4-(3,4-Difluorophenyl)-1H-imidazol-5-yl)imidazo[1,2-a]pyridine] the IC50 [1] was 300 nM and the IC50 [2] was 640 nM.

Fc1ccc(-c2nc[nH]c2-c2ccc3ncccc3c2)cc1F [Compound 36, 6-(4-(3,4-Difluorophenyl)-1H-imidazol-5-yl)quinoline] gave an IC50 [1] of 500 nM and an IC50 [2] of 1480 nM.

In the case of Cc1cc(-c2ncn(C)c2-c2ccc3ncccc3c2)ccc1F [Compound 37, 6-(4-(4-Fluoro-3-methylphenyl)-1-methyl-1H-imidazol-5-yl)quinoline], the IC50 [1] is reported as 260 nM and the IC50 [2] is reported as 920 nM.

Compound Fc1ccc(-c2nc[nH]c2-c2ccc3ncccc3c2)cc1 [Compound 38, 6-(4-(4-Fluorophenyl)-1H-imidazol-5-yl)quinoline] has an IC50 [1] of 930 nM and an IC50 [2] of 2550 nM.

Work on Clc1cccc(-c2nc[nH]c2-c2ccc3ncccc3c2)c1 [Compound 39, 6-(4-(3-Chlorophenyl)-1H-imidazol-5-yl)quinoline] yielded an IC50 [1] of 190 nM and an IC50 [2] of 390 nM.

In the case of Fc1cccc(-c2nc[nH]c2-c2ccc3ncccc3c2)c1 [Compound 40, 6-(4-(3-Fluorophenyl)-1H-imidazol-5-yl)quinoline], the IC50 [1] is reported as 460 nM and the IC50 [2] is reported as 1220 nM.

Cc1cccc(-c2ncn(C)c2-c2ccc3[nH]ncc3c2)c1 [Compound 41, 5-(1-Methyl-4-(m-tolyl)-1H-imidazol-5-yl)-1H-indazole] gave an IC50 [1] of 20 nM and an IC50 [2] of 60 nM.

Compound Cc1cccc(-c2ncn(C)c2-c2ccc3cn[nH]c3c2)c1 [Compound 42, 6-(1-Methyl-4-(m-tolyl)-1H-imidazol-5-yl)-1H-indazole] has an IC50 [1] of 30 nM and an IC50 [2] of 150 nM.

In the case of Cc1cccc(-c2ncn(C)c2-c2ccc3ncn(C)c3c2)c1 [Compound 43, 1-Methyl-6-(1-methyl-4-(m-tolyl)-1H-imidazol-5-yl)-1H-benzo[d]imidazole], the IC50 [1] is reported as 190 nM and the IC50 [2] is reported as 530 nM.

Work on Cc1cccc(-c2ncn(C)c2-c2ccc3ncsc3c2)c1 [Compound 44, 6-(1-Methyl-4-(m-tolyl)-1H-imidazol-5-yl)benzo[d]thiazole] yielded an IC50 [1] of 180 nM and an IC50 [2] of 720 nM.

Cc1cccc(-c2ncn(C)c2-c2ccc3nccn3c2)c1 [Compound 45, 6-(1-Methyl-4-(m-tolyl)-1H-imidazol-5-yl)imidazo[1,2-a]pyridine] gave an IC50 [1] of 440 nM and an IC50 [2] of 1780 nM.

With Cc1cccc(-c2ncn(C)c2-c2ccc3ncccc3c2)c1 [Compound 46, 6-(1-Methyl-4-(m-tolyl)-1H-imidazol-5-yl)quinoline] the IC50 [1] was 260 nM and the IC50 [2] was 1680 nM.

Cc1cccc(-c2ncn(C)c2-c2ccc3nccnc3c2)c1 [Compound 47, 6-(1-Methyl-4-(m-tolyl)-1H-imidazol-5-yl)quinoxaline] gave an IC50 [1] of 180 nM and an IC50 [2] of 660 nM.

With Cn1cnc(-c2ccc(F)cc2)c1-c1ccc2[nH]ncc2c1 [Compound 48, −(4-(4-Fluorophenyl)-1-methyl-1H-imidazol-5-yl)-1H-indazole] the IC50 [1] was 60 nM and the IC50 [2] was 250 nM.
